Measurements as given in ChEMBL document CHEMBL1201862, “PubChem BioAssay data set” (2004).
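1) Cells in 96-well plates. 2) Compound, 48 h, 5 concentrations. 3) Linear interpolation between surrounding doses. 4) Unreached endpoint = highest concentration. GI50 marks 50% less growth.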 Calls of active or inactive are those of the source. Cut-off read from the data, not from the text of the source: active = GI50 up to about 1.1 µM and inactive = higher.

What was measured:
Experiment in all cases: inhibition of tumour cell growth, NCI panel, 48 h
[1] = system: Malme-3M
[2] = system: HOP-62
[3] = system: K562
[4] = system: HCT-116
[5] = system: PC-3
[6] = system: MDA-MB-231
[7] = system: SF-295
[8] = system: OVCAR-5
[9] = system: HCT-15
[10] = system: SN12C
[11] = system: MDA-N
[12] = system: SK-MEL-5
[13] = system: OVCAR-3
[14] = system: COLO 205
[15] = system: MOLT-4
[16] = system: SW-620
[17] = system: LOX IMVI
[18] = system: EKVX
[19] = system: NCI-H460
[20] = system: HCC 2998

| Compound | GI50 [1] | GI50 [2] | GI50 [3] | GI50 [4] | GI50 [5] | GI50 [6] | GI50 [7] | GI50 [8] | GI50 [9] | GI50 [10] | GI50 [11] | GI50 [12] | GI50 [13] | GI50 [14] | GI50 [15] | GI50 [16] | GI50 [17] | GI50 [18] | GI50 [19] | GI50 [20] |
| --- | --- | --- | --- | --- | --- | --- | --- | --- | --- | --- | --- | --- | --- | --- | --- | --- | --- | --- | --- | --- |
| COc1cc2oc(=O)cc(C)c2c(OC)c1O | > 100 µM (inactive) | > 100 µM (inactive) | > 100 µM (inactive) | > 100 µM (inactive) | > 100 µM (inactive) | > 100 µM (inactive) | > 100 µM (inactive) | > 100 µM (inactive) | > 100 µM | > 100 µM (inactive) | > 100 µM (inactive) | > 100 µM (inactive) | > 100 µM (inactive) | > 100 µM (inactive) | > 100 µM (inactive) | > 100 µM (inactive) | > 100 µM (inactive) | > 100 µM (inactive) | – | – |
| CCCn1c(SC)nc(COC(=O)NC)c1COC(=O)NC | – | > 100 µM (inactive) | > 100 µM (inactive) | > 100 µM (inactive) | > 100 µM (inactive) | > 100 µM (inactive) | > 100 µM (inactive) | > 100 µM (inactive) | > 100 µM | > 100 µM (inactive) | > 100 µM (inactive) | > 100 µM (inactive) | > 100 µM (inactive) | > 100 µM (inactive) | > 100 µM (inactive) | > 100 µM (inactive) | > 100 µM (inactive) | > 100 µM (inactive) | > 100 µM (inactive) | – |
| Cc1cc(C)c2c(=O)n(CC(O)CN3CCN(CCOCCO)CC3)sc2n1 (centres undefined) | 18.8 µM (inactive) | 28.4 µM (inactive) | 37.3 µM (inactive) | 17.1 µM (inactive) | 18.7 µM (inactive) | 19.1 µM (inactive) | > 100 µM (inactive) | 18.9 µM (inactive) | 42.1 µM | 18.4 µM (inactive) | 15.6 µM (inactive) | 15.1 µM (inactive) | 22.4 µM (inactive) | 17.7 µM (inactive) | 24.5 µM (inactive) | 25.6 µM (inactive) | 18.8 µM (inactive) | 18.7 µM (inactive) | 20.2 µM (inactive) | – |
| Cc1ccc(S(=O)(=O)OC2CCN(C)CC2)cc1 | 19 µM (inactive) | > 100 µM (inactive) | 19.3 µM (inactive) | 46.6 µM (inactive) | > 100 µM (inactive) | > 100 µM (inactive) | > 100 µM (inactive) | > 100 µM (inactive) | > 100 µM | > 100 µM (inactive) | > 100 µM (inactive) | 15.6 µM (inactive) | > 100 µM (inactive) | 21.7 µM (inactive) | 18.3 µM (inactive) | 20.1 µM (inactive) | > 100 µM (inactive) | > 100 µM (inactive) | > 100 µM (inactive) | – |
| O=C(/C=C1/Nc2ccc([N+](=O)[O-])cc2N/C1=C/C(=O)c1ccccc1)c1ccccc1 | 40.8 µM (inactive) | 12.1 µM (inactive) | 32.8 µM (inactive) | 20.7 µM (inactive) | 43.7 µM (inactive) | 16.6 µM (inactive) | 15 µM (inactive) | > 100 µM (inactive) | 11.5 µM | 40.8 µM (inactive) | > 100 µM (inactive) | 38 µM (inactive) | 16.7 µM (inactive) | 53.6 µM (inactive) | 22.5 µM (inactive) | – | – | 30.8 µM (inactive) | 13.7 µM (inactive) | 55.8 µM (inactive) |
| COC(=O)CCC(C)[C@H]1CCC2C3CC[C@@H]4CC5(CC[C@]4(C)C3C[C@H](OC(C)=O)[C@@]21C)OOC1(CCCCC1)OO5 (some centres undefined) | 4.03 µM (inactive) | 8.89 µM (inactive) | 6.01 µM (inactive) | 3.24 µM (inactive) | 6.55 µM (inactive) | > 100 µM (inactive) | 9.4 µM (inactive) | 17.3 µM (inactive) | 11.9 µM | > 100 µM (inactive) | 8.26 µM (inactive) | 5.78 µM (inactive) | 15.3 µM (inactive) | 6.17 µM (inactive) | 6.11 µM (inactive) | – | – | 1.9 µM (inactive) | 4.69 µM (inactive) | 2.25 µM (inactive) |
| N#Cc1c(Cl)c2ccccc2n2c1nc1ccccc12 | – | 38 µM (inactive) | 18.9 µM (inactive) | 18.3 µM (inactive) | 31 µM (inactive) | 23.8 µM (inactive) | 59.7 µM (inactive) | > 100 µM (inactive) | 15.2 µM | 25.4 µM (inactive) | 35 µM (inactive) | – | 36.5 µM (inactive) | 23.1 µM (inactive) | 30.3 µM (inactive) | 29.1 µM (inactive) | 10.8 µM (inactive) | 19.9 µM (inactive) | 69.7 µM (inactive) | 19.6 µM (inactive) |
| O=c1[nH]c(-n2[nH]c3c(c2=O)CCCC3)nc(O)c1-c1ccccc1 | > 100 µM (inactive) | – | > 100 µM (inactive) | > 100 µM (inactive) | > 100 µM (inactive) | > 100 µM (inactive) | > 100 µM (inactive) | > 100 µM (inactive) | > 100 µM | > 100 µM (inactive) | > 100 µM (inactive) | > 100 µM (inactive) | – | > 100 µM (inactive) | > 100 µM (inactive) | > 100 µM (inactive) | – | > 100 µM (inactive) | > 100 µM (inactive) | – |
